Assay type in all cases: cell-based
Test [1] deals with methicillin resistant Staphylococcus epidermidis (ATCC 27626). Description: microbe, parasite or virus in culture. Conditions: for MIC: Staphylococcus epidermidis, ATCC 27626 / MRSE; for Therapeutic index MRSE: EC50 RBC divided by MIC. The protocol: (§1) The antimicrobial testing was conducted by TosLab A/S (Tromsø, Norway). Each compound was diluted to 1 mg/ml in water and tested in duplicates at 200, 100, 50, 35, 15, 10, 5, 2.5, 1, 0.5 μg/ml except 4n which was tested at 50, 35, 15, 10, 5, 2.5, 1, 0.5 μg/ml due to solubility problems. All tested compounds were di TFA salts.
(§2) The bacterial strains were grown in 2% Bacto Peptone water until exponential growth was achieved. […] A bacterial concentration of 2×10^6 cfu/ml was used. Both negative control (no peptide) and positive control (Gentamicin) was used for all bacterial strains. Growth or no growth was judged by the turbidity of the wells.
Methicillin resistant Staphylococcus epidermidis (ATCC 27626)
(§3) Antimicrobial assays: 200 μg/ml
(§4) Suitable methodologies are described in Example 1.
(§5) Each compound was tested in duplicates at 200, 100, 50, 35, 15, 10, 5, 2.5, 1, 0.5 μg/ml. All tested compounds were di-trifluoroacetic acid salts.

Test [2] deals with human red blood cells. Briefly: cells. Conditions: Erythrocyte, highest concentration tested 1000 μg/ml. The protocol:
The hemolytic testing against human erythrocytes was conducted by Lytix Biopharma A/S (Tromso, Norway). Each compound was tested from a concentration of 1 mg/ml and lower, except 4k and 4n which was only tested up to 0.5 mg/ml due to solubility problems. 8 mL of blood was collected from adult healthy male donors. The blood was divided equally and distributed in a commercial available EDTA containing test tube (BD vacutainer, 7.2 mg K2 EDTA) and in a 10 mL reaction vial containing 40 μL of a heparin solution (1000 U/mL in 0.9% sodium chloride). After 30 minutes the hematocrit of the EDTA treated blood was determined. The heparinized blood was centrifuged for 10 minutes at 1500 rpm and the supernatant removed. Subsequently the RBCs were washed with prewarmed PBS three times, and diluted to 10% hematocrit. The compounds dissolved in PBS (concentration 1 μg/mL to 1000 µg/mL) and the erythrocytes were incubated under agitation at 37° C. for one hour. A positive control with an end concentration of 0.1% TRITON X-100 (nonionic surfactant) and a negative control containing pure PBS buffer were included. The samples were centrifuged (4000 rpm) for 5 minutes and the absorption of the supernatant was measured at 405 nm. The values given in Table 1A correspond to 50% hemolysis.
The plasma fraction of heparinized human blood was first removed by centrifugation and three additional washing steps with 37° C. pre-warmed phosphate buffered saline (PBS). Subsequently, the human RBC were diluted to 10% hematocrit and the β^2,2-amino acid derivatives were dissolved in PBS providing concentrations ranging from 1-1000 μg/mL. The diluted RBC were added to the compound solutions to a final erythrocyte concentration of 1% v/v. PBS and TRITON X-100 (non-ionic surfactant), in a final concentration of 0.1% v/v, were included as negative and positive control. After 1 hour agitated incubation at 37° C. the samples were centrifuged at 4000 rpm for 5 min. Release of hemoglobin was determined by measuring the absorbance of the supernatant at 405 nm. Hemolytic activity was calculated as the ratio of treated sample with β^2,2-amino acid derivative and tenside treated sample according to the formula: […]

In test [3] the test system is Staphylococcus aureus (ATTC 25923). Briefly: microbe, parasite or virus in culture. Conditions: for MIC: Staphylococcus aureus; for Therapeutic index S. aureus: EC50 RBC divided by MIC. The procedure:
as §1, §2
Staphylococcus aureus (ATTC 25923)
as §3, §4, §5

Test [4] has as its system methicillin resistant Staphylococcus aureus (ATCC 33591). Description: microbe, parasite or virus in culture. Conditions: for MIC: Staphylococcus aureus; for Therapeutic index MRSA: EC50 RBC divided by MIC. The protocol:
as §1, §2
Methicillin resistant Staphylococcus aureus (ATCC 33591)
as §3, §4, §5

The test system of test [5] is Escherichia coli (ATTC 25922). Description: microbe, parasite or virus in culture. Conditions: for MIC: Escherichia coli; for Therapeutic index E. coli: EC50 RBC divided by MIC. The procedure: as §1, §2
Escherichia coli (ATTC 25922)
as §3, §4, §5

Setting [6] is: Example 2, values separated by / are repeat tests, read-out: Antimicrobial potency (MIC) MRSE.
[7] abbreviates: Homo sapiens, Example 2, * low solubility in the test media, read-out: Toxicity RBC (EC50).
The mark [8] stands for this setting: Example 2, values separated by / are repeat tests, read-out: Antimicrobial potency (MIC) S. aureus.
Where [9] appears, read: ATCC 33591 / MRSA, Example 2, values separated by / are repeat tests, read-out: Antimicrobial potency (MIC) MRSA.
The mark [10] stands for this setting: Example 2, values separated by / are repeat tests, read-out: Antimicrobial potency (MIC) E. coli.
Setting [11] is: Example 4, ATCC 27626, di-trifluoroacetate salts, highest concentration tested 200 μg/ml, read-out: MIC MRSE.
[12] abbreviates: Example 4, hemolytic activity, human red blood cells, read-out: EC50 RBC.
Where [13] appears, read: ATCC25923, Example 4, ATCC 25923, di-trifluoroacetate salts, highest concentration tested 200 μg/ml, read-out: MIC S. aureus.
The mark [14] stands for this setting: ATCC33591, Example 4, ATCC 33591, di-trifluoroacetate salts, highest concentration tested 200 μg/ml, read-out: MIC MTRSA.
Where [15] appears, read: ATCC25922, Example 4, ATCC 25922, di-trifluoroacetate salts, highest concentration tested 200 μg/ml, read-out: MIC E. coli.

Where two headings read alike, the source gives them in different places.

As usually defined, the EC50 is the midpoint of the concentration-response curve.

`Cc1cc(C)cc(CC(CN)(Cc2cc(C)cc(C)c2)C(=O)NCCN(C)C)c1` [Compound 25, 3-amino-N-(2-(dimethylamino)-ethyl)-2,2-bis(3,5-dimethylbenzyl)-propanamide]: the MIC worked out at 10 µg/mL in test [1] (setting [6]), 100 µg/mL in test [3] (setting [8]), 50 µg/mL in test [4] (setting [9]) and 50 µg/mL in test [5] (setting [10]). Moreover, the EC50 in test [2] (setting [7]) was 820 µg/mL.
Take `CN(C)CCNC(=O)C(CN)(CCCc1ccccc1)CCCc1ccccc1` [Compound 26, 2-(aminomethyl)-N-(2-(dimethyl-amino)ethyl)-5-phenyl-2-(3-phenyl-propyl)-pentanamide]: the MIC in test [1] (setting [6]) worked out at 35 µg/mL; in test [3] (setting [8]) it was 35 µg/mL; in test [4] (setting [9]) it was 35 µg/mL; in test [5] (setting [10]), 100 µg/mL. In test [2] (setting [7]), the EC50 is 316 µg/mL.
For the compound `CN(C)CCNC(=O)C(CN)(Cc1ccc2ccccc2c1)Cc1ccc2ccccc2c1` [Compound 27, 3-amino-N-(2-(dimethylamino)ethyl)-2,2-bis(naphthalen-2-ylmethyl)propanamide], the MIC in test [1] (setting [6]) was 5 µg/mL; in test [3] (setting [8]), 5 µg/mL; in test [4] (setting [9]) it was 5 µg/mL; in test [5] (setting [10]) it was 15 µg/mL. Besides, the EC50 in test [2] (setting [7]) amounted to 145 µg/mL.
With `CN(C)CCNC(=O)C(CN)(Cc1ccc(C(F)(F)F)cc1)Cc1ccc(C(F)(F)F)cc1` [Compound 28, 3-amino-N-(2-(dimethylamino)ethyl)-2,2-bis(4-(trifluoromethyl)benzyl)-propanamide], the MIC in test [1] (setting [6]) came to 15 µg/mL; in test [3] (setting [8]) it was 10 µg/mL; in test [4] (setting [9]) it was 5 µg/mL; in test [5] (setting [10]), 35 µg/mL. In addition, the 50% effective concentration (EC50) in test [2] (setting [7]) stood at 329 µg/mL.
Consider `CN1CCN(C(=O)C(CN)(Cc2ccc(C(C)(C)C)cc2)Cc2ccc(C(C)(C)C)cc2)CC1` [Compound 29, 3-amino-2,2-bis(4-tert-butylbenzyl)-1-(4-methylpiperazin-1-yl)propan-1-one], for which the MIC was 5 µg/mL in test [1] (setting [6]), 10 µg/mL in test [3] (setting [8]), 10 µg/mL in test [4] (setting [9]) and 10 µg/mL in test [5] (setting [10]). Besides, in test [2] (setting [7]), the EC50 stood at 241 µg/mL.
Turning to `Cc1cc(C)cc(CC(CN)(Cc2cc(C)cc(C)c2)C(=O)N2CCN(C)CC2)c1` [Compound 30, 3-amino-2,2-bis(3,5-dimethyl-benzyl)-1-(4-methylpiperazin-1-yl)propan-1-one], the MIC in test [1] (setting [6]) is 35 µg/mL; in test [3] (setting [8]), above 200 µg/mL; in test [4] (setting [9]), 200 µg/mL; in test [5] (setting [10]) it was 200 µg/mL. Moreover, the EC50 in test [2] (setting [7]) was above 1000 µg/mL.
`CN1CCN(C(=O)C(CN)(CCCc2ccccc2)CCCc2ccccc2)CC1` [Compound 31, 2-(aminomethyl)-1-(4-methyl-piperazin-1-yl)-5-phenyl-2-(3-phenylpropyl)pentan-1-one]: the MIC in test [1] (setting [6]), in test [3] (setting [8]), in test [4] (setting [9]) and in test [5] (setting [10]) was 200 µg/mL throughout. Moreover, in test [2] (setting [7]), the EC50 is above 1000 µg/mL.
`CN1CCN(C(=O)C(CN)(Cc2ccc3ccccc3c2)Cc2ccc3ccccc3c2)CC1` [Compound 32, 3-amino-1-(4-methylpiperazin-1-yl)-2,2-bis(naphthalen-2-ylmethyl)propan-1-one]: the MIC turned out to be 10 µg/mL in test [1] (setting [6]), 10 µg/mL in test [3] (setting [8]), 5 µg/mL in test [4] (setting [9]) and 15 µg/mL in test [5] (setting [10]). The EC50 in test [2] (setting [7]) worked out at 225 µg/mL.
As for `CN1CCN(C(=O)C(CN)(Cc2ccc(C(F)(F)F)cc2)Cc2ccc(C(F)(F)F)cc2)CC1` [Compound 33, 3-amino-1-(4-methylpiperazin-1-yl)-2,2-bis(4-(trifluoromethyl)benzyl)propan-1-one], the MIC in test [1] (setting [6]) is 50 µg/mL; in test [3] (setting [8]), 35 µg/mL; in test [4] (setting [9]), 10 µg/mL; in test [5] (setting [10]), 50 µg/mL. The EC50 in test [2] (setting [7]) was 376 µg/mL.
For the compound `CN(C)CCN1CCN(C(=O)C(CN)(Cc2ccc(C(C)(C)C)cc2)Cc2ccc(C(C)(C)C)cc2)CC1` [Compound 34, 3-amino-2,2-bis(4-tert-butylbenzyl)-1-(4-(2-(dimethylamino)ethyl)piperazin-1-yl)propan-1-one], the MIC in test [1] (setting [6]), in test [3] (setting [8]), in test [4] (setting [9]) and in test [5] (setting [10]) was 10 µg/mL in each case. For the same compound, the EC50 in test [2] (setting [7]) came out at 252 µg/mL.
As to `CN(C)CCN1CCN(C(=O)C(CN)(CCCc2ccccc2)CCCc2ccccc2)CC1` [Compound 36, 2-(aminomethyl)-1-(4-(2-(dimethyl-amino)ethyl)piperazin-1-yl)-5-phenyl-2-(3-phenylpropyl)pentan-1-one], the MIC was 50 µg/mL in test [1] (setting [6]), 200 µg/mL in test [3] (setting [8]), 50 µg/mL in test [4] (setting [9]) and 200 µg/mL in test [5] (setting [10]). The EC50 in test [2] (setting [7]) was above 1000 µg/mL.
In the case of `CN(C)CCN1CCN(C(=O)C(CN)(Cc2ccc3ccccc3c2)Cc2ccc3ccccc3c2)CC1` [Compound 37, 3-amino-1-(4-(2-(dimethylamino)ethyl)piperazin-1-yl)-2,2-bis(naphthalen-2-ylmethyl)propan-1-one], the MIC was 10 µg/mL in test [1] (setting [6]), 15 µg/mL in test [3] (setting [8]), 2.5 µg/mL in test [4] (setting [9]) and 35 µg/mL in test [5] (setting [10]). Further, the EC50 in test [2] (setting [7]) was 301 µg/mL.
The corresponding values for `CN(C)CCN1CCN(C(=O)C(CN)(Cc2ccc(C(F)(F)F)cc2)Cc2ccc(C(F)(F)F)cc2)CC1` [Compound 38, 3-amino-1-(4-(2-(dimethylamino)ethyl)piperazin-1-yl)-2,2-bis(4-(trifluoromethyl)benzyl)propan-1-one] are 50 µg/mL, 35 µg/mL, 5 µg/mL, 100 µg/mL and 862 µg/mL.
In the case of `CN1CCN(C(=O)C(CN)(CCCc2ccccc2)CCCc2ccccc2)CC1` [Entry 5a], the MIC in test [1] (setting [11]), in test [3] (setting [13]), in test [4] (setting [14]) and in test [5] (setting [15]) was 315 µM in each case. In test [2] (setting [12]), the EC50 was above 1000 µg/mL.
As to `CN1CCN(C(=O)C(CN)(Cc2ccc(C(F)(F)F)cc2)Cc2ccc(C(F)(F)F)cc2)CC1` [Entry 5b], the “Therapeutic index MRSE” value in test [1] was determined as 7.5. The MIC in test [1] (setting [11]) came out at 70 µM; in test [3] (setting [13]), 49 µM; in test [4] (setting [14]) it was 14 µM; in test [5] (setting [15]) it was 70 µM. Moreover, the EC50 in test [2] (setting [12]) worked out at 525 µM. For the same compound, in test [3], the “Therapeutic index S. aureus” value is recorded as 11. Besides, in test [4], the “Therapeutic index MRSA” value came out at 38. Besides, the “Therapeutic index E. coli” value in test [5] is reported as 7.5.
For `CN(C)CCNC(=O)C(CN)(CCCc1ccccc1)CCCc1ccccc1` [Entry 6a], in test [1], the “Therapeutic index MRSE” value amounted to 9.1. Moreover, the MIC came to 56 µM in test [1] (setting [11]), 56 µM in test [3] (setting [13]), 56 µM in test [4] (setting [14]) and 160 µM in test [5] (setting [15]). For the same compound, in test [2] (setting [12]), the EC50 was determined as 507 µM. The “Therapeutic index S. aureus” value in test [3] worked out at 9.1. Moreover, in test [4], the “Therapeutic index MRSA” value is recorded as 9.1. Further, the “Therapeutic index E. coli” value in test [5] was found to be 3.2.
